Blank lines part the entries; values can stand above or below the compound they belong to.
Key:
[1] = system: reactive oxygen species in 661W photoreceptor cells; experiment: Reactive oxygen species in atRAL-treated 661W cells (DCFH-DA, flow cytometry); type: cell-based, mouse; settings: 30 minutes
Protocol: For reference, 2′,7′-dichlorodihydrofluorescein diacetate (DCFH-DA) converts to DCF, which expresses fluorescence in response to oxidative stress in cells. Therefore, the expression of DCF in cells is used as an indicator of the degree of oxidative stress.
(§1) In order to examine the antioxidative effect of the Sargassum serratifolium ethanol extract and the compounds separated therefrom of the present invention, atRAL (1.8 μM) and Sargassum serratifolium ethanol extract (0.5 μg/mL), sargachromenol (0.5 μM), sargahydroquinoic acid (0.5 μM), or sargaquinoic acid (1.0 μM) were added to medium mixed with DCFH-DA (20 μM), and the photoreceptor cells were treated with them and cultured for 30 minutes. Then, the cells were washed with PBS, and the cells were recovered. The cells expressing the fluorescence were measured using flow cytometry.
as §1, with “acid (0.5 μM) or sargaquinoic” for “acid (0.5 μM), or sargaquinoic”

[2] = system: malondialdehyde (MDA) production in 661W photoreceptor cells; experiment: Malondialdehyde (MDA) denatured protein in atRAL-treated 661W cells (MDA immunoblot); type: cell-based, mouse; settings: 2 hours; for expression level of MDA-denatured protein compared with group treated with atRAL only: sargachromenol 0.5 μM, sargahydroquinoic acid 0.5 μM or sargaquinoic acid 1.0 μM, with atRAL 1.8 μM
Protocol: For reference, the malondialdehyde (MDA) is the result of lipid peroxidation by excessive oxidative stress in cells, and thus the amount of MDA in cells is a factor to measure the degree of oxidative stress.
(§2) In detail, samples of each of Sargassum serratifolium ethanol extract and the compounds separated therefrom were mixed with a specific amount of atRAL (1.8 μM) and Sargassum serratifolium ethanol extract (0.5 μg/mL), sargachromenol (0.5 μM), sargahydroquinoic acid (0.5 μM), or sargaquinoic acid (1.0 μM). The photoreceptor cells were treated with mixtures thereof. Then, they were cultured for 2 hours. The cells were then washed with PBS and the intracellular proteins were recovered. The number of proteins denatured by the lipid peroxides in cells was analyzed by protein immunoassay using MDA immunoblot kit (Cell biolabs).
as §2, with “acid (0.5 μM) or sargaquinoic” for “acid (0.5 μM), or sargaquinoic”, “treated with mixtures. Then, they” for “treated with mixtures thereof. Then, they”

661W photoreceptor cells [3] = experiment: Cell viability of 661W cells under atRAL oxidative stress (MTS); type: cell-based, mouse; settings: 24 hours; for viability at 0.5 µM: Mus musculus, 661W, 0.5 μM compound with atRAL 1.8 μM
Protocol: In detail, 661W photoreceptor cells were cultured in 96-wells at a concentration of 3×10^3 cells/well and treated with atRAL having a concentration of 1.8 μM (Sigma Aldrich, St. Louis, Mo., USA) for 24 hours. Then, the medium was replaced with medium containing MTS reagent, and they were cultured for 1 hour. The absorbance thereof was measured at 490 nm, and the results were compared to determine cell viability. The cell viability thereof was measured by Celltiter^96 Aqueous One solution assay kit (Promega).

[4] = Hydroxyl radical scavenging (deoxyribose test); type: biochemical; settings: 37° C. 1 hour, 532 nm
Protocol: Hydroxyl radicals (—OH) are the most reactive radicals among oxygen radicals, which occur during aerobic metabolism in the human body. These radicals damage peripheral cells to create collateral living body molecules. A deoxyribose test was performed so as to measure the ability to scavenge hydroxyl radicals. Hydroxyl radicals attack deoxyribose to create small fragments. Some of which are pink when added with TBA (thiobarbituric acid) under an acidic pH environment, so the degree of damage by hydroxyl radicals is measured by absorbance at 532 nm.
Experimental methods described in Chandini, Ganesan, and Bhaskar (Chandini, S. K., Ganesan, p., and Bhaskar, N. (2008) In vitro antioxidant activities of three selected brown seaweeds of India. Food Chemistry, 107, 707-713) were modified to be used. […] 1 ml the sample to be measured was mixed with the working solution, and 0.1 ml ascorbic acid (1 mM) is added to form Fe2+−EDTA mixture which is an […] of ferric chloride (FeCl3) and ethylenediamine tetraacetic acid (EDTA). […] The absorbance thereof was measured. […]
Experimental methods described in Chandini, Ganesan, and Bhaskar (Chandini, S. K., Ganesan, p., and Bhaskar, N. (2008) In vitro antioxidant activities of three selected brown seaweeds of India. Food Chemistry, 107, 707-713) were modified to be used. […] The absorbance thereof was measured. […]

[5] = DPPH radical scavenging activity; type: biochemical; settings: DPPH 200 μM, 30 minutes, 517 nm
Protocol: For the measurement, 100 μl DPPH having a concentration of 200 μM and 100 μl the sample were mixed in a 96-well plate, and they reacted at room temperature for about 30 minutes. Then, the absorbance thereof was measured at 517 nm using a microplate reader. BHT was used as a positive control. The concentration was compared at the same as that of the sample.
DPPH radical scavenging activity was calculated by the method as described below. Radical scavenging activity (%)=(ADPPH−Asample)/ADPPH×100
For the measurement, 100 μl DPPH having a concentration of 200 μM and 100 μl the sample were mixed in a 96-well plate, and they reacted at room temperature for about 30 minutes. Then, the absorbance thereof was measured at 517 nm using a microplate reader. BHT was used as a positive control. The concentration thereof was compared to the same as that of the sample.
DPPH radical scavenging activity was calculated by the method as described below.

[6] = ABTs assay (ABTs cation scavenging); type: biochemical; settings: 6 minutes, 732 nm
Protocol: The ABTs assay is similar to the DPPH assay but differs in that antioxidative activity is measured by generating free radicals through chemical reactions. ABTs are reacted with potassium persulfate to generate ABTs […] radicals, which react with H-donors such as phenolic compounds to be converted to colorless ABTs. Accordingly, the degree of antioxidative activity may be determined by measuring the amount of ABTs consumed by reacting with a sample containing a phenolic compound.
ABTs antioxidative activity was measured by partially modified Van den Berg (1999) and others using the discoloration of ABTs radical-specific green color by antioxidants.
(§3) Potassium persulfate was added to 7 mM ABTs solution at a final concentration of 2.4 mM. They reacted in the dark for 12 hours to 16 hours at R/T so as to produce ABTs cations. The resulting ABTs cation was diluted to be used, having an absorbance value of 0.7±0.02. […] The absorbance thereof was measured at 732 nm. The radical scavenging activity was calculated from the measured values as follows. […]
as §3, with “mM ABTS” for “mM ABTs”, “mM. […]” for “mM. They reacted in the dark for 12 hours to 16 hours at R/T so as to produce ABTs cations.”

661W photoreceptor cells [7] = experiment: Cytotoxicity on 661W photoreceptor cells (MTS); type: cell-based, mouse; settings: 661W cells, separated compounds
Protocol: (§4) 661W photoreceptor cells were cultured in 96-wells at a concentration of 3×10^3 cells/well. Then, they were treated with 1.0 μg/ml Sargassum serratifolium ethanol extract or compounds separated therefrom (sargahydroquinoic acid (SHQ), sargachromenol (SCM), and sargaquinoic acid (SQA)) at a concentration of 1.0 μM and cultured for 24 hours. Then, the medium was replaced with medium containing MTS reagent. Then, they were cultured for 1 hour. Cell viability was measured by measuring the absorbance at 490 nm and comparing the results. The cell viability thereof was analyzed by Celltiter^96 Aqueous One solution assay kit (Promega).
as §4, with “viability” for “viability thereof”

[8] = compound 0.5 μM and atRAL 1.8 μM

SMILES: CC(C)=CCC/C(=C/CC/C(C)=C/CC/C(C)=C/Cc1cc(O)cc(C)c1O)C(=O)O [sargahydroquinoic acid]
- fluorescence expression level (DCF) reduced compared to group treated with atRAL only [1, 8]: 77%
- fluorescence expression level (DCF) reduced compared to group treated with atRAL only ([1]; compound 0.5 μM and atRAL 1.8 μM, listed as SHQ): about 76%
- expression level of MDA-denatured protein compared with group treated with atRAL only [2]: effectively reduced
- viability at 0.5 µM (661W photoreceptor cells [3]): > 90%

SMILES: CC(C)=CCC/C(=C/CC/C(C)=C/CCC1(C)C=Cc2cc(O)cc(C)c2O1)C(=O)O (stereo not drawn) [sargachromenol]
- fluorescence expression level (DCF) reduced compared to group treated with atRAL only [1, 8]: 76%
- fluorescence expression level (DCF) reduced compared to group treated with atRAL only ([1]; compound 0.5 μM and atRAL 1.8 μM, listed as SCM): ~77%
- expression level of MDA-denatured protein compared with group treated with atRAL only [2]: effectively reduced
- viability at 0.5 µM (661W photoreceptor cells [3]): > 90%

- OH radical (IC50, μg/ml) [4]: 1.675 ± 0.21 µg/mL
- DPPH (IC50, μg/ml) [5]: 11.18 ± 0.15 µg/mL
- ABTs (IC50, μg/ml) [6]: 7.77 ± 0.74 µg/mL
SMILES: Cc1cc(C(C)(C)C)c(O)c(C(C)(C)C)c1 [BHT]

SMILES: CC(C)=CCC/C(=C/CC/C(C)=C/CC/C(C)=C/CC1=CC(=O)C=C(C)C1=O)C(=O)O [sargaquinoic acid]
- concentration up to which there was no cytotoxicity (661W photoreceptor cells [7]): ≤ 1.0 µM
- fluorescence expression level (DCF) reduced compared to group treated with atRAL only ([1]; compound 1.0 μM and atRAL 1.8 μM): 73%
- expression level of MDA-denatured protein compared with group treated with atRAL only [2]: effectively reduced
- viability at 0.5 µM (661W photoreceptor cells [3]): > 90%

SMILES: CC1=C(/C=C/C(C)=C/C=C/C(C)=C/C=O)C(C)(C)CCC1 [atRAL, all-trans-retinal, reference compound]
- fluorescence expression level (DCF) higher than that of the control group ([1]; atRAL 1.8 μM only): about 80%
- expression level of protein denatured by MDA compared with the control ([2]; atRAL 1.8 μM only): increased
- cell viability reduced in the only atRAL-treated group (661W photoreceptor cells [3]; atRAL 1.8 μM alone): about 55%

— patent US11590185B2, “Antioxidant composition comprising Sargassum serratifolium extract or fraction thereof as active ingredient” (PUKYONG NATIONAL UNIVERSITY INDUSTRY-UNIVERSITY COOPERATION …, priority 2015, dated 2023)
